Measurements from patent publication US9173898B2, “Methods of treating giardiasis” (THE UNITED STATES OF AMERICA, as represented by the …, priority 2010, dated 2015).
In brackets after ≈: the same amount, converted by molar mass. Read-outs that look alike come from different tables or passages of the source.

Experiments:
Giardia WB = assay: Giardia viability (ATP content) assay in 1536-well format; format: cell-based, Giardia lamblia; conditions: for IC50: concentration at which 50% of DMSO control ATP levels are detected, 48 hours, 1536-well; for Giardia WB Efficacy / Emax: percent reduction in ATP levels compared with 38.3 mM Mnz at maximal compound concentration; for Emax: 48 h, read-out: Giardia WB Efficacy
Procedure: (§1) For the viability assay in 1536-well format, 2 μL media was dispensed per well into 1536-well white solid-bottom plates using a Multidrop Combi dispenser (Thermo Scientific). Subsequently, 23 nL/well compound solutions or DMSO controls were dispensed to the assay plates containing media via a pintool workstation (Kalypsys, San Diego). Trophozoites were chilled on ice to detach from glass tubes, and unless otherwise noted, were diluted to 250,000 trophozoites/mL with ice cold media. The trophozoite suspension was kept on ice and dispensed as 4 μL/well with the Multidrop Combi dispenser. Attachment of trophozoites to dispensing apparatus was avoided with continuous dispensing and icing of the trophozoite suspension. The plates were covered with plastic low-evaporation lids, individually sealed in Type A Bio-Bags and incubated at 37° C. for 48 hours. Following incubation, 4 μL/well of ATPLite reagent was dispensed with the Multidrop Combi dispenser. The assay plates were briefly centrifuged at 1000 RPM and luminescence signal was detected on a ViewLux plate reader (PerkinElmer) after 20 min incubation at room temperature. Signal-to-basal (S/B) ratio, Z′ factor and coefficient of variation (CV) were calculated from 32 wells with 0.38% DMSO (total signal) and 32 well with 38.3 μM Mnz (basal signal).
Assay miniaturization in 1,536-well plate format was undertaken to increase throughput and facilitate screening of large compound libraries. The volume of trophozoites suspension was reduced to 6 μL/well and the ATP detection reagent was reduced to 4 μL/well in the 1536-well assay plates. […] The 100 trophozoites/well density was selected for further experiments to reduce the preparation work of Giardia cultures. Following these conditions, a DMSO test plate was used to assess the statistical parameters of the assay in the 1,536-well plate format.
Using the above established conditions in 1536-well format, each compound of the invention was tested at 5 concentration points, ranging from 61 nM-38.3 μM in a 1:5 dilution ratio (Inglese, J., D. S. Auld, A. Jadhav, R. L. Johnson, A. Simeonov, A. Yasgar, W. Zheng, and C. P. Austin. 2006. Quantitative high-throughput screening: a titration-based approach that efficiently identifies biological activities in large chemical libraries. Proc Natl Acad Sci USA 103:11473-8).

CHO cells [1] = assay: CHO cell cytotoxicity assay in 1536-well format (ATP content counter-screen); format: cell-based, Chinese hamster; conditions: for CHO Efficacy: percent reduction in ATP levels compared with 38.3 mM camptothecin at maximal compound concentration; for Emax: Cricetulus griseus, CHO, 48 h, percent reduction in ATP levels compared with 38.3 µM camptothecin at maximal compound concentration, read-out: CHO Efficacy
CHO cells [2] = assay: as above; format: cell-based, Chinese hamster; conditions: concentration at which 50% of DMSO control ATP levels are detected, 48 hours
Procedure: For the viability assay in 1536-well format, 2 μL media was dispensed per well into 1536-well white solid-bottom plates using Multidrop Combi dispenser. Subsequently, 23 nL/well compound solutions or DMSO controls were dispensed to the assay plates via a pintool workstation. The Chinese hamster ovary (CHO) cells were grown in T225 flasks to 70% confluence under a standard cell culture condition (ATCC), detached with 0.25% Trypsin/EDTA, and seeded at 250 cells/well in 4 μL media (Dulbecco's Modified Eagle Medium, 10% fetal bovine serum, 1× penicillin/streptomycin). The plates were incubated at 37° C. with 5% CO2 and 95% humidity for 48 hours. Subsequently, ATP content was measured following the addition of 4 μL/well of ATPLite reagent and a 20 min incubation on a ViewLux plate reader.
Data from the CHO cell counter-screen underwent the same initial analysis, with the exception that raw luminescence counts were normalized relative to DMSO only wells (0% activity) and 38.3 μM camptothecin treated wells (100% activity).
CHO cells, commonly used in high throughput compound screening, were selected to determine the cytotoxicity of the compounds towards a mammalian cell line.

G. lamblia GS isolate = assay: ATP content assay against G. lamblia GS isolate; format: cell-based, Giardia lamblia
Procedure: as §1
As a further confirmatory step, some compounds that were commercially available were purchased as powder samples and tested against the G. lamblia GS isolate using both the ATP content and enumeration assays (Table 3).

[3] = system: Giardia lamblia GS isolate; assay: Trophozoite enumeration assay; format: cell-based; conditions: G. lamblia GS isolate, 48 hrs, cell counting in hemocytometer
Procedure: Giardia lamblia GS isolate was plated into sterile 96-well black clear-bottom assay plates at 10,000 cells/well density and 120 μL/well volume in culture media. Compounds tested were prepared as 50 mM DMSO solutions in a 12 point 1:3 titration series in DMSO, with exceptions being carbadox, Bortezomib and BTO-1, which were used at 10 mM top concentration due to solubility limitations. Compound titration series were added to duplicate assay wells as 0.5 μL/well and the assay plates were incubated anaerobically in Type A Bio-Bag (BD Diagnostics) for 48 hrs at 37° C. Cell density was visually scored in each well and the 6 wells surrounding the visually determined IC50 concentrations were quantitated by cell counting. For enumeration, trophozoites were detached on ice for 30 min and resuspended via pipetting. 75 μL of culture was removed from each well, mixed with 65 μL of 0.4% Trypan Blue and 10 μL of 30% bleach (final concentration of 2% bleach) to immobilize trophozoites. Trophozoites were then counted in a hemocytometer.

[4] = system: Giardia lamblia GS isolate; assay: Minimum Lethal Concentration (MLC) determination; format: cell-based; conditions: 3 days with compound, then 3 days regrowth without compound, tube without any live organisms
Procedure: Giardia lamblia GS isolate was used throughout the Minimal Lethal Concentration (MLC) experiments. Organisms were grown and maintained in TYI-S-33 medium supplemented with bile and antibiotics (Keister, 1983). Cidal activity was determined in 96-well culture plates (Corning Incorporated) followed by Giardia trophozoites regrowth in 8 ml tubes (Fisher Scientific). Dry compounds were dissolved in DMSO (Sigma) at stock concentration of 10 mM and then added to the growth media to ensure final DMSO concentration of no more than 0.5%. 100 μl of the compound solutions were placed in the wells by serial dilutions. 10 μl of Giardia trophozoites containing 10000 organisms were then added. Serial dilutions of metronidazole served as the positive control and the DMSO-containing medium served as the negative control. Plates were incubated under anaerobic conditions in sealed bags (Becton Dickinson and Company) at 37° C. for 3 days and surveyed visually under microscope to check survival, mobility and attachment of trophozoites. The plate was chilled on ice for 30 min and the entire contents of 4 wells in the growth/death transition were transferred into the 8 ml tubes containing growth media only (without the compound). After 3 days of incubation at 37° C., tubes were checked under microscope for any surviving trophozoites. MLC was attributed to the tube without any live organisms. See, e.g., Keister, D. B. 1983. Axenic culture of Giardia lamblia in TYI-S-33 medium supplemented with bile. Trans. Soc. Trop. Med. Hyg. 77:487-488.

[5] = G. lamblia GS isolate, purchased powder samples
[6] = G. lamblia GS isolate, purchased powder samples, read-out: ATP Content IC50
[7] = Giardia duodenalis, G. lamblia GS isolate, purchased powder samples, read-out: ATP Content IC50
[8] = Giardia duodenalis, Table 2, screen, read-out: Giardia GS IC50
[9] = Table 2, screen, read-out: Giardia GS IC50

N#Cc1cc([N+](=O)[O-])c2sc(C(N)=O)[n+]([O-])c2c1 [BTO-1]
IC50 (Giardia WB): 1730 nM
Giardia WB Efficacy (Giardia WB): 72.3%
CHO Efficacy (CHO cells [1]): 32.2%
IC50 (CHO cells [2]): 68800 nM
ATP Content Efficacy (G. lamblia GS isolate; [5]): 99.1%
IC50 (G. lamblia GS isolate; [6]): 2000 nM
IC50 [3]: 9300 nM

O=C(Nc1ccccc1)c1cc([N+](=O)[O-])ccc1Cl [GW9662]
Emax (Giardia WB; Giardia): 86.4%
IC50 (Giardia WB; Giardia): 6870 nM
MBC ([4]; Giardia duodenalis, 72 h): 208 µM (≈ 57.5 µg/mL)
Emax (CHO cells [1]): 8.5%
IC50 (CHO cells [2]; Cricetulus griseus, CHO): > 100000 nM
ATP Content Efficacy (G. lamblia GS isolate; [5]): 99.2%
IC50 (G. lamblia GS isolate; [7]): 12700 nM
IC50 ([3]; Giardia duodenalis): 32900 nM

CO[C@@H]1[C@H](OC(=O)/C=C/C=C/C=C/C=C/C(=O)O)CC[C@]2(CO2)[C@H]1[C@@]1(C)O[C@@H]1CC=C(C)C [Fumagillin]
Emax (Giardia WB; Giardia): 83.4%
IC50 (Giardia WB; Giardia): 10 nM
MBC ([4]; Giardia duodenalis, 72 h): 0.257 µM (≈ 0.118 µg/mL)
Emax (CHO cells [1]): -1.9%
IC50 (CHO cells [2]; Cricetulus griseus, CHO): > 100000 nM
ATP Content Efficacy (G. lamblia GS isolate; [5]): 98.9%
IC50 (G. lamblia GS isolate; [7]): 2 nM
IC50 (G. lamblia GS isolate; [8]): 2 nM
IC50 ([3]; Giardia duodenalis): 3 nM

O=[N+]([O-])c1ccc([As](=O)(O)O)cc1 [Nitarsone]
IC50 (Giardia WB): 430 nM
Giardia WB Efficacy (Giardia WB): 97.0%
MBC [4]: 2.6 µM
CHO Efficacy (CHO cells [1]): −13.5%
IC50 (CHO cells [2]): > 100000 nM
ATP Content Efficacy (G. lamblia GS isolate; [5]): 99.6%
IC50 (G. lamblia GS isolate; [6]): 900 nM
IC50 (G. lamblia GS isolate; [9]): 1260 nM
IC50 [3]: 1200 nM

CC(C)C[C@H](NC(=O)[C@H](Cc1ccccc1)NC(=O)c1cnccn1)B(O)O [Bortezomib]
MBC ([4]; Giardia duodenalis, 72 h): 0.51 µM (≈ 0.196 µg/mL)
ATP Content Efficacy (G. lamblia GS isolate; [5]): 98.5%
IC50 (G. lamblia GS isolate; [7]): 60 nM
IC50 ([3]; Giardia duodenalis): 130 nM

O=[N+]([O-])c1ccc(/C=N/O)o1 [Nifuroxime]
IC50 (Giardia WB): 460 nM
Giardia WB Efficacy (Giardia WB): 97.1%
MBC [4]: 1.54 µM (≈ 0.24 µg/mL)
CHO Efficacy (CHO cells [1]): −50.3%
IC50 (CHO cells [2]): 41000 nM
IC50 (G. lamblia GS isolate; [9]): 1000 nM

COC(=O)[C@H]1[C@H]2C[C@@H]3c4[nH]c5ccccc5c4CCN3C[C@H]2C[C@@H](OC(=O)c2cc(OC)c(OC)c(OC)c2)[C@@H]1OC [Deserpidine]
Emax (Giardia WB; Giardia): 94.5%
IC50 (Giardia WB; Giardia): 1630 nM
MBC ([4]; Giardia duodenalis, 72 h): 1.54 µM (≈ 0.891 µg/mL)
Emax (CHO cells [1]): 13%
IC50 (CHO cells [2]; Cricetulus griseus, CHO): 280 nM
IC50 (G. lamblia GS isolate; [8]): 283 nM

COC(=O)N/N=C/c1c[n+]([O-])c2ccccc2[n+]1[O-] [Carbadox]
Emax (Giardia WB; Giardia): 86.6%
IC50 (Giardia WB; Giardia): 5460 nM
MBC ([4]; Giardia duodenalis, 72 h): 4.6 µM (≈ 1.21 µg/mL)
Emax (CHO cells [1]): 6.3%
IC50 (CHO cells [2]; Cricetulus griseus, CHO): > 100000 nM
ATP Content Efficacy (G. lamblia GS isolate; [5]): 99.4%
IC50 (G. lamblia GS isolate; [7]): 240 nM
IC50 (G. lamblia GS isolate; [8]): 2830 nM
IC50 ([3]; Giardia duodenalis): 290 nM

Nc1ncn([C@H]2C[C@H](O)[C@@H](CO)O2)c(=O)n1 [Decitabine, 5-Aza-2′-deoxycytidine]
Emax (Giardia WB; Giardia): 81.2%
IC50 (Giardia WB; Giardia): 970 nM
MBC ([4]; Giardia duodenalis, 72 h): 2.6 µM (≈ 0.593 µg/mL)
Emax (CHO cells [1]): -52.2%
IC50 (CHO cells [2]; Cricetulus griseus, CHO): 24400 nM
ATP Content Efficacy (G. lamblia GS isolate; [5]): 95.1%
IC50 (G. lamblia GS isolate; [7]): 150 nM
IC50 (G. lamblia GS isolate; [8]): 100 nM
IC50 ([3]; Giardia duodenalis): 70 nM

hydroxocobalamin acetate [Hydroxocobalam in Acetate]
IC50 (Giardia WB): 13700 nM
Giardia WB Efficacy (Giardia WB): 92.2%
MBC [4]: >208 µM
CHO Efficacy (CHO cells [1]): 16.1%
IC50 (CHO cells [2]): > 100000 nM
ATP Content Efficacy (G. lamblia GS isolate; [5]): 98.4%
IC50 (G. lamblia GS isolate; [6]): 78300 nM
IC50 [3]: 54200 nM

CCCC(=O)OCC(OC(=O)CCC)C(OC(=O)CCC)C(Cn1c2nc(=O)[nH]c(=O)c-2nc2cc(C)c(C)cc21)OC(=O)CCC (stereo not drawn) [Riboflavin Butyrate]
Emax (Giardia WB; Giardia): 95.7%
IC50 (Giardia WB; Giardia): 1090 nM
MBC ([4]; Giardia duodenalis, 72 h): 41.7 µM (≈ 27.4 µg/mL)
Emax (CHO cells [1]): 20.3%
IC50 (CHO cells [2]; Cricetulus griseus, CHO): > 100000 nM
IC50 (G. lamblia GS isolate; [8]): 1130 nM

CCCOc1ccc2nc(NC(=O)OC)sc2c1 [Tioxidazole]
Emax (Giardia WB; Giardia): 90.9%
IC50 (Giardia WB; Giardia): 1460 nM
MBC ([4]; Giardia duodenalis, 72 h): 1.54 µM (≈ 0.41 µg/mL)
Emax (CHO cells [1]): 34.9%
IC50 (CHO cells [2]; Cricetulus griseus, CHO): > 100000 nM
IC50 (G. lamblia GS isolate; [8]): 634 nM
